Reference: the supplement of paper PMC11208160

test: recombinant UMI read abundance after kanamycin selection (control-corrected) (log10(CPM+1)); higher = more efficient recombination; extreme values may be limits of the assay; sequences stand for … in AGTGCAGAGAAAATCGGCCAGTTTTCTCTGCCTGCAGTCCGCATGCCGTGGGACCCCTTGGGTTCTAACCTGTTGCCTAGATTTATGCAGCGGACTGCCTTTCTCCCAAAGTGATAAACCGG…AGGTTGGTTTCACT; site = the 11-nt donor
Summary of the method: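 Pooled Escherichia coli screen of donor and donor-binding-loop pairs for the IS621 bridge recombinase. Each pair sits with a 12-nt UMI on a plasmid carrying a promoterless kanamycin gene. The library was co-electroporated with a target plasmid encoding a fixed target and T7-inducible recombinase, then plated with IPTG (0.07 mM) plus kanamycin, or unselected, each in two replicates. Recombinant UMIs were PCR-amplified across the donor–target junction and sequenced. Counts became CPM, averaged over replicates, scaled by control-derived factors and reported as log10(CPM+1).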
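Note: IS621 bridge recombinase in Escherichia coli cells against a fixed T5 target plasmid.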

Sequence	recombinant UMI read abundance (log10)
CGTTTCGCATGGACCGGTTTTCCCGGTAATCCGTATTTGGA (site CGTTTCGCTTC)	0.0198
CGTTTGGCATGGACCGGTTTTCCCGGTAATCCGTATTTGGT (site CGTTTGGCTAA)	0.0435
CGTTTGGCATGGACCGGTTTTCCCGGTAATCCGTATTTGGT (site CGTTTGGCTAC)	1.31
CGTTTGGCATGGACCGGTTTTCCCGGTAATCCGTATTTGGT (site CGTTTGGCTAG)	0.00668
CGTTTGGCATGGACCGGTTTTCCCGGTAATCCGTATTTGGT (site CGTTTGGCTAT)	0.959
CGTTTGGCATGGACCGGTTTTCCCGGTAATCCGTATTTGTT (site CGTTTGGCTAA)	0.693
CGTTTGGCATGGACCGGTTTTCCCGGTAATCCGTATTTGTT (site CGTTTGGCTAC)	0.0131
CGTTTGGCATGGACCGGTTTTCCCGGTAATCCGTATTTGTT (site CGTTTGGCTAG)	0.989
CGTTTGGCATGGACCGGTTTTCCCGGTAATCCGTATTTGTT (site CGTTTGGCTAT)	0.033
CGTTTGTCATGGACCGGTTTTCCCGGTAATCCGTATTTGCT (site CGTTTGACTAG)	0
CGTTTGTCATGGACCGGTTTTCCCGGTAATCCGTATTTGCT (site CGTTTGCCTAG)	0
CGTTTGTCATGGACCGGTTTTCCCGGTAATCCGTATTTGCT (site CGTTTGGCTAG)	0
CGTTTGTCATGGACCGGTTTTCCCGGTAATCCGTATTTGCT (site CGTTTGTCTAG)	1.92
CGTTTTGCATGGACCGGTTTTCCCGGTAATCCGTATTTGCT (site CGTTTAGCTAG)	0
CGTTTTGCATGGACCGGTTTTCCCGGTAATCCGTATTTGCT (site CGTTTCGCTAG)	0
CGTTTTGCATGGACCGGTTTTCCCGGTAATCCGTATTTGCT (site CGTTTGGCTAG)	0
CGTTTTGCATGGACCGGTTTTCCCGGTAATCCGTATTTGCT (site CGTTTTGCTAG)	0.543
CTAAAAGCATGGACCGGTTTTCCCGGTAATCCGTATTTGGC (site CTAAAAGCTGC)	0
CTAAAATCATGGACCGGTTTTCCCGGTAATCCGTATTTGAC (site CTAAAATCTGT)	2.03

Sequence	recombinant UMI read abundance (log10)
CTAAAATCATGGACCGGTTTTCCCGGTAATCCGTATTTGAC (site CTAGTATCTGT)	0.0803
CTAAGAACATGGACCGGTTTTCCCGGTAATCCGTATTTGAA (site CTAAGAACTTT)	2.44
CTAAGGCCATGGACCGGTTTTCCCGGTAATCCGTATTTGAC (site ATAAGGCCTGT)	0
CTAAGGCCATGGACCGGTTTTCCCGGTAATCCGTATTTGAC (site CTAAGGCCTGT)	0.577
CTAAGGCCATGGACCGGTTTTCCCGGTAATCCGTATTTGAC (site GTAAGGCCTGT)	0
CTAAGGCCATGGACCGGTTTTCCCGGTAATCCGTATTTGAC (site TTAAGGCCTGT)	0
CTAATAACATGGACCGGTTTTCCCGGTAATCCGTATTTGGA (site CTAATAACTTC)	2.05
CTAATAACATGGACCGGTTTTCCCGGTAATCCGTATTTGGA (site CTACTAACTTC)	0.337
CTAATAACATGGACCGGTTTTCCCGGTAATCCGTATTTGGA (site CTAGTAACTTC)	0.0598
CTAATAACATGGACCGGTTTTCCCGGTAATCCGTATTTGGA (site CTATTAACTTC)	1.14
CTAATTACATGGACCGGTTTTCCCGGTAATCCGTATTTGTG (site CTAATTACTCA)	0.859
CTACCGTCATGGACCGGTTTTCCCGGTAATCCGTATTTGGG (site CTACCGTCTCC)	0.901
CTACCTACATGGACCGGTTTTCCCGGTAATCCGTATTTGAG (site CTACCTACTCT)	1.04
CTACCTACATGGACCGGTTTTCCCGGTAATCCGTATTTGAG (site CTCCCTACTCT)	0.0123
CTACCTACATGGACCGGTTTTCCCGGTAATCCGTATTTGAG (site CTGCCTACTCT)	0.00249
CTACCTACATGGACCGGTTTTCCCGGTAATCCGTATTTGAG (site CTTCCTACTCT)	0.0155
CTACTAACATGGACCGGTTTTCCCGGTAATCCGTATTTGAA (site CTACTAACTTA)	0.909
CTACTAACATGGACCGGTTTTCCCGGTAATCCGTATTTGAA (site CTACTAACTTC)	0.291
CTACTAACATGGACCGGTTTTCCCGGTAATCCGTATTTGAA (site CTACTAACTTG)	0
